These are literature values, as cited in patent publication US20130028868A1 (priority 2011, published 2013).

The conditions of series [1]: BDIX rats (50 rats); 3 weeks, 1 mg/kg/week.
Experiment in series [2]: not given
This is another data set of the same source.

Experiment in series [3]: not given
The source holds these as a separate data set.

For series [4] the following is noted: in vivo.
The conditions of series [5]: by Cisplatin.
Another series deals with cells. To be noted: in vitro experiments.

Like-named read-outs stand apart in the source and are kept apart here.

`N.N.[Cl][Pt][Cl]` [Cisplatin]: the chromosome aberration entry in the series with animal tissue culture is “causing chromosome aberration”. For the same compound, in series [1], the “deaths within 455 days after first time administration” value was 33, the died from leukemia is reported as 12, the “died from malignant tumor” value was 13 and the “died from renal fibrosarcoma” value was 1. For the same compound, the “excreted along with urine” value (96 hours after treatment) is 25%˜45. The “drug in human milk” value (reports) is “drug detected in human milk”. Besides, the marrow inhibition incidence in series [2] (dosage amount≦100 mg/m2) was 10˜20%. In series [2] (dosage≧120 mg/m2), the marrow inhibition incidence result was “about 40%”.

Consider `CC(=O)O[C@H]1C(=O)[C@@]2(C)[C@H]([C@H](OC(=O)c3ccccc3)[C@]3(O)C[C@H](OC(=O)[C@H](O)[C@@H](NC(=O)c4ccccc4)c4ccccc4)C(C)=C1C3(C)C)[C@]1(OC(C)=O)CO[C@@H]1C[C@@H]2O` [Paclitaxel], for which, in series [3] (in vivo), the “renal clearance of the drug (share)” value is on record as 1-8%. Also, in series [3] (intravenous paclitaxel), the protein binding is on record as 89%-98. Also, the “incidence rate of serious neurotoxicity” value in series [4] is listed as 6%. Further, the “reduction of clearance of the drug” value in series [5] is given as “about ⅓”. Also, the radiosensitization result in the series with cells is recorded as “significant radiosensitization”.
